Assay results: ChEMBL document CHEMBL4665868, “Study on the interaction between 4-(1H-indol-3-yl)-2-(p-tolyl)quinazoline-3-oxide and human serum albumin” (Bioorg Med Chem, 2020); call rule not given here

How the values were obtained:
Format in all cases: ADME
[1] = target: T1, Albumin (Homo sapiens, UniProt P02768); experiment: Binding affinity to HSA […] site assessed as quenching in presence of digitoxin at 0 to 100 uM after 5 mins by fluorescence based site competition assay; conditions: isolated protein
T1 sequence (P02768 whole entry): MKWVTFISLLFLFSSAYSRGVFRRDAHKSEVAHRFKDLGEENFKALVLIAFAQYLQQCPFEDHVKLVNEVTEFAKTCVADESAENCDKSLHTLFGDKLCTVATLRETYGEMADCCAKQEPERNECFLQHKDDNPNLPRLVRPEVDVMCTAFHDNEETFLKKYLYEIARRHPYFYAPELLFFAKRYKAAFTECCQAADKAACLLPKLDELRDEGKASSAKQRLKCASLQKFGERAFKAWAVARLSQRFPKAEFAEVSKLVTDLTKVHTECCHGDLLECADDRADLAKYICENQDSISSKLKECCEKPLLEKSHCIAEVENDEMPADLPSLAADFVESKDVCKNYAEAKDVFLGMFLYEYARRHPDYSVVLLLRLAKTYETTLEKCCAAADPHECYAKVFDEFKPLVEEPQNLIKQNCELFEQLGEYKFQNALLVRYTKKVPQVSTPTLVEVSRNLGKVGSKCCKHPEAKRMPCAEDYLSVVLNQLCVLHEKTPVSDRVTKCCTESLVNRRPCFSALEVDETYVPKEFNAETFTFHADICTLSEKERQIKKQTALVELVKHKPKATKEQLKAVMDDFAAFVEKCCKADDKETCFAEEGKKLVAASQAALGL

[2] = target: T1, Albumin; experiment: Binding affinity to HSA […] site assessed as quenching in presence of ibuprofen at 0 to 100 uM after 5 mins by fluorescence based site competition assay; conditions: isolated protein
[3] = target: T1, Albumin; experiment: Binding affinity to HSA […] site assessed as quenching in presence of warfarin at 0 to 100 uM after 5 mins by fluorescence based site competition assay; conditions: isolated protein, dose 0-100 µM
[4] = target: T1, Albumin; experiment: Binding affinity to HSA assessed as decrease in fluorescence intensity at 100 uM at by fluorescence spectrophotometer assay; parameters: scale not given: the % may be the effect or the level left; conditions: isolated protein
[5] = target: T1, Albumin; experiment: Binding affinity to HSA assessed as causing the change of the microenvironment of tyrosine residue by measuring red shift at 0 to 100 uM after 5 mins by fluorescence based Synchronous fluorescence spectroscopy; conditions: isolated protein, dose 0-100 µM
[6] = target: T1, Albumin; experiment: Binding affinity to HSA assessed as change in entropy at 298 K by Van't Hoff plot analysis; conditions: isolated protein
[7] = target: T1, Albumin; experiment: Binding affinity to HSA assessed as change in enthalpy at 298 K by Van't Hoff plot analysis; conditions: isolated protein
[8] = target: T1, Albumin; experiment: Binding affinity to HSA assessed as binding constant at 303 K by fluorescence spectrophotometer assay; conditions: isolated protein
[9] = target: T1, Albumin; experiment: Binding affinity to HSA assessed as binding constant at 300 K by fluorescence spectrophotometer assay; conditions: isolated protein
[10] = target: T1, Albumin; experiment: Binding affinity to HSA assessed as quenching constant at 303 K by fluorescence spectrophotometer assay; conditions: isolated protein
[11] = target: T1, Albumin; experiment: Binding affinity to HSA assessed as quenching constant at 300 K by fluorescence spectrophotometer assay; conditions: isolated protein
[12] = target: T1, Albumin; experiment: Binding affinity to HSA assessed as Stern-Volmer quenching constant at 303 K by fluorescence spectrophotometer assay; conditions: isolated protein
[13] = target: T1, Albumin; experiment: Binding affinity to HSA assessed as quenching constant at 298 K by fluorescence spectrophotometer assay; conditions: isolated protein
[14] = target: T1, Albumin; experiment: Binding affinity to HSA assessed as Stern-Volmer quenching constant at 300 K by fluorescence spectrophotometer assay; conditions: isolated protein
[15] = target: T1, Albumin; experiment: Binding affinity to HSA assessed as Stern-Volmer quenching constant at 298 K by fluorescence spectrophotometer assay; conditions: isolated protein
[16] = target: T1, Albumin; experiment: Binding affinity to HSA assessed as binding constant at 298 K by fluorescence spectrophotometer assay; conditions: isolated protein

SMILES: Cc1ccc(-c2nc3ccccc3c(-c3c[nH]c4ccccc34)[n+]2[O-])cc1
- Activity [1]: Active
- Activity [2]: Active
- Activity [3]: Not Active
- Activity [4]: 49.2%
- Activity [5]: 9 nm
- deltaS [6]: 436 J/mol·K
- deltaH [7]: 33.227 kcal/mol
- K [8]: 1.03 10^4L/mol
- K [9]: 1.7 10^4L/mol
- Kq [10]: 1.33 10^12L/mol.s
- Kq [11]: 1.39 10^12L/mol.s
- KSV [12]: 1.33 10^4L/mol
- Kq [13]: 1.4 10^12L/mol.s
- KSV [14]: 1.39 10^4L/mol
- KSV [15]: 1.4 10^4L/mol
- K [16]: 2.47 10^4L/mol
